Assay results from US9115137B2, “2,3,4,5-tetrahydro-1H-pyrido[4,3-B]indole compounds and methods of use thereof” (priority 2008, dated 2015).

How the values were obtained:
[1] = biological target: T1, human recombinant histamine H2 receptor (Homo sapiens, UniProt P25021); experiment: Histamine H2 radioligand binding ([125I]aminopotentidine); settings: compound at 1 μM; CHO K1 cells; read-out: Histamine Binding (1 μM) H2, percent inhibition of specific binding
T1 construct: expressed in transfected cells; host or cells: CHO-K1 cells
T1 sequence (P25021 whole entry): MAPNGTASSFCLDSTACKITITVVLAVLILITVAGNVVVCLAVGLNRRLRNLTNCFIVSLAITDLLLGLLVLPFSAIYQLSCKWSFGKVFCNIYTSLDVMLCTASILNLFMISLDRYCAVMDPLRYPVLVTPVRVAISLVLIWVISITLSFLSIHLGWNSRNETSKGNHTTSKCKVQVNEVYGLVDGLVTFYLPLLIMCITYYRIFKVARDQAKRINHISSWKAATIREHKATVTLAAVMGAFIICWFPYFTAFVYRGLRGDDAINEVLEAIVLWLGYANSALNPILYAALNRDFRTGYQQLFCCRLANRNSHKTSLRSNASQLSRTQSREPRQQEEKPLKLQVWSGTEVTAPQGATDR
Outline: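 CHO-K1 membranes expressing the receptor were incubated in 50 mM phosphate buffer pH 7.4 with 0.1 nM [125I]aminopotentidine for 120 minutes at 25° C., with nonspecific binding defined by 3 μM tiotidine. Compounds were tested at 1 μM (1% DMSO); bound radioligand was counted after filtration, values given as percent inhibition of specific binding.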

[2] = biological target: T2, human recombinant adrenergic α1D receptor (Homo sapiens, UniProt P25100); experiment: Adrenergic α1D radioligand binding ([3H]Prozosin); settings: compound at 1 μM; HEK-293 cells; read-out: Adrenergic (1 μM) α1D, percent inhibition of specific binding
T2 construct: expressed in transfected cells; host or cells: HEK-293 cells
T2 sequence (P25100 1-572): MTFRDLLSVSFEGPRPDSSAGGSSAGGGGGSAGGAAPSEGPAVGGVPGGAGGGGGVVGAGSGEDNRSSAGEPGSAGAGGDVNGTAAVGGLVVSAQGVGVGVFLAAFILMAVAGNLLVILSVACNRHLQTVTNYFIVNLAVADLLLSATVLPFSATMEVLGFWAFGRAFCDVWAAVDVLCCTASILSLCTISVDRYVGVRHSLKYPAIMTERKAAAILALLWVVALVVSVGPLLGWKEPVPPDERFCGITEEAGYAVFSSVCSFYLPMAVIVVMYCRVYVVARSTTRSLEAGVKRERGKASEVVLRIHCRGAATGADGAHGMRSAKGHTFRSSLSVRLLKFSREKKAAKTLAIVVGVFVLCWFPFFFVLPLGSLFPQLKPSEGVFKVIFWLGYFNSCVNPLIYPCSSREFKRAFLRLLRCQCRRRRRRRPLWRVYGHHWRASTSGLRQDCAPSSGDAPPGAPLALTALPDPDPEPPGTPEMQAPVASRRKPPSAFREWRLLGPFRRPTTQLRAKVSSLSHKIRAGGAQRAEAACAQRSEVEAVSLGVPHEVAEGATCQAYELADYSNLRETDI
Outline: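 Membranes of HEK-293 cells expressing human α1D receptor incubated with 0.6 nM [3H]prazosin and compound (1 μM or lower, 1% DMSO) for 60 min at 25° C in 50 mM Tris-HCl pH 7.4. Non-specific binding defined with 10 μM phentolamine; filtration read-out given as percent inhibition of specific binding.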

[3] = biological target: T3, human recombinant serotonin (5-Hydroxytryptamine) 5-HT2C receptor (Homo sapiens, UniProt P28335); experiment: Serotonin 5-HT2C radioligand binding ([3H]Mesulergine); settings: compound at 1 μM; CHO-K1 cells; read-out: Serotonin (1 μM) 5-HT2C, percent inhibition of specific binding
T3 construct: expressed in transfected cells; host or cells: CHO-K1 cells
T3 sequence (P28335 33-458): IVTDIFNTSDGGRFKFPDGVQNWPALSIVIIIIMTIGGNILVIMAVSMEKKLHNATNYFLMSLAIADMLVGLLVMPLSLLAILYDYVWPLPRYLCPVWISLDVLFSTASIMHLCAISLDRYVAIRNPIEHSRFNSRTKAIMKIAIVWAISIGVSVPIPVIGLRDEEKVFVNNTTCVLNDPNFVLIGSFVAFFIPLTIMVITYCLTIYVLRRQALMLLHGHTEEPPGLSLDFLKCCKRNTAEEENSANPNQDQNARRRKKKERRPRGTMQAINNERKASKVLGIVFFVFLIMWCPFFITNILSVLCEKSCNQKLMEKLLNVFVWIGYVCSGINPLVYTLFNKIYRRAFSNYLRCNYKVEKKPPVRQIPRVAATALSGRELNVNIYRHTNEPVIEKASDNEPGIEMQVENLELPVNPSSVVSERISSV
Outline: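 Membranes from CHO-K1 cells expressing the human receptor were incubated 60 min at 25 °C with 1 nM [3H]mesulergine in 50 mM Tris-HCl pH 7.4 with ascorbic acid and pargyline; 1 μM mianserin defined non-specific binding.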

[4] = biological target: T4, human recombinant histamine H1 receptor (Homo sapiens, UniProt P35367); experiment: Histamine H1 radioligand binding ([3H]Pyrilamine); settings: compound at 1 μM; CHO cells; read-out: Histamine Binding (1 μM) H1, percent inhibition of specific binding
T4 construct: expressed in transfected cells; host or cells: CHO cells
T4 sequence (P35367 whole entry): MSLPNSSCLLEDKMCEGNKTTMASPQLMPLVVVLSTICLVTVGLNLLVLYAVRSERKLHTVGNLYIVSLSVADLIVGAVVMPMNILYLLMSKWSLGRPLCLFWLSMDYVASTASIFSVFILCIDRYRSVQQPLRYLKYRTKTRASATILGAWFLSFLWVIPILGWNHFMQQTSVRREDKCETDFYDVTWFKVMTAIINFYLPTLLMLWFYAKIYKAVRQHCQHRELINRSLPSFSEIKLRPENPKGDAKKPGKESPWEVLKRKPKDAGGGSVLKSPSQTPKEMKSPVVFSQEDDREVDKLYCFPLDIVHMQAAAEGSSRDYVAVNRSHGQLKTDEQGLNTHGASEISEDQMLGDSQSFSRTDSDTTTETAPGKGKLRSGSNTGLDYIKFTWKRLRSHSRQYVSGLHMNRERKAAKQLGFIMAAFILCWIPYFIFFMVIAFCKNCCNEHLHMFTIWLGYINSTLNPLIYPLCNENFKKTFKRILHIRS
Outline: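 Recombinant human H1 receptor expressed in CHO cells, in Tris-HCl pH 7.4 with MgCl2, NaCl and sucrose, incubated with 1.2 nM [3H]pyrilamine for 180 min at 25 °C; non-specific binding defined with 1 μM pyrilamine. Compounds tested at 1 μM in 1% DMSO; filter-bound counts give percent inhibition of specific binding.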

Structure (SMILES)	inhibition at 1 µM [1]	inhibition at 1 µM [2]	inhibition at 1 µM [3]	inhibition at 1 µM [4]
Cc1ccc2c(c1)c1c(n2CCNC(=O)C(C)C)CCN(C)C1 [Compound 61, N-(2-(1,2,3,4-tetrahydro-2,8-dimethylpyrido[4,3-b]indol-5-yl)ethyl)isobutyramide]	13%	28%	27%	32%
Cc1ccc2c(c1)c1c(n2CCNC(=O)C2CCCCC2)CCN(C)C1 [Compound 62, N-(2-(1,2,3,4-tetrahydro-2,8-dimethylpyrido[4,3-b]indol-5-yl)ethyl)cyclohexanecarboxamide]	39%	64%	54%	63%
Cc1ccc2c(c1)c1c(n2CCNC(=O)c2ccc(F)cc2Cl)CCN(C)C1 [Compound 63, 2-chloro-4-fluoro-N-(2-(1,2,3,4-tetrahydro-2,8-dimethylpyrido[4,3-b]indol-5-yl)ethyl)benzamide]	35%	56%	72%	86%
Cc1ccc2c(c1)c1c(n2CC(N)=O)CCN(C)C1 [Compound 64, 2-(1,2,3,4-tetrahydro-2,8-dimethylpyrido[4,3-b]indol-5-yl)acetamide]	-3%	20%	45%	62%
Cc1ccc2c(c1)c1c(n2CCNC(=O)C2CCNCC2)CCN(C)C1 [Compound 65, N-(2-(1,2,3,4-tetrahydro-2,8-dimethylpyrido[4,3-b]indol-5-yl)ethyl)piperidine-4-carboxamide]	-7%	11%	24%	34%
Cc1ccc2c(c1)c1c(n2CCNC(=O)c2ccc(F)cc2)CCN(C)C1 [Compound 66, 4-fluoro-N-(2-(1,2,3,4-tetrahydro-2,8-dimethylpyrido[4,3-b]indol-5-yl)ethyl)benzamide]	49%	76%	93%	66%
CN1CCc2c(c3cc(Cl)ccc3n2CCC(N)=O)C1 [Compound 67, 3-(8-chloro-1,2,3,4-tetrahydro-2-methylpyrido[4,3-b]indol-5-yl)propanamide]	-6%	32%	65%	70%
Cc1ccc2c(c1)c1c(n2CCNC(=O)C2CCCC2)CCN(C)C1 [Compound 68, N-(2-(1,2,3,4-tetrahydro-2,8-dimethylpyrido[4,3-b]indol-5-yl)ethyl)cyclopentanecarboxamide]	31%	66%	40%	58%
Cc1ccc2c(c1)c1c(n2CCNC(=O)c2ccncc2C)CCN(C)C1 [Compound 69, N-(2-(1,2,3,4-tetrahydro-2,8-dimethylpyrido[4,3-b]indol-5-yl)ethyl)-3-methylpyridine-4-carboxamide]	14%	30%	24%	88%
Cc1ccc2c(c1)c1c(n2C2CCCCC2O)CCN(C)C1 (stereo not shown) [Compound 73, 2-(1,2,3,4-tetrahydro-2,8-dimethylpyrido[4,3-b]indol-5-yl)cyclohexanol]	8%	6%	52%	2%
